Results: patent US11505556B2, “Halogenated derivatives of morphinans and uses thereof” (Xalud Therapeutics, Inc., priority 2017, dated 2022)

What was measured:
[1] = test system: BV-2 cells; assay: Cell viability of BV-2 cells; assay type: cell-based, mouse; details: BV2 cells, FIGS. 7, 8B to 8D
Experimental: Cell viability was also measured by a standard assay, e.g., measurement of the release of cytoplasm-resident enzymes in the tissue culture supernatant or media to detect cell loss/lysis/rupture.

[2] = test system: EAE (multiple sclerosis model) pain; assay: Experimental Autoimmune Encephalomyelitis (EAE) model, mechanical allodynia; assay type: in vivo, rat; details: both paws
Excerpt: The Experimental Autoimmune Encephalomyelitis (EAE) Model has been developed as a rat model of multiple sclerosis (Sloane, E. et al. Brain Behav. Immun. 2009, 23, 92-100). The model encompasses the injection of myelin oligodendrocyte glycoprotein (MOG) or similar glycoprotein to establish and antibody reaction that damages spinal nerve fibers leading to a progression of motor and sensory deficits. The rapid progression of deficits can be slowed by reduction of the MOG dose, enabling testing for pain responses prior to the development of hind limb paresis.
Reduced-dose MOG or saline (sham) was administered intradermally at the base of the tail. Mechanical allodynia pain testing was performed on hind left and right paws by application of Semmes-Weinstein (“von Frey”) monofilaments calibrated for different bending forces for 8 seconds to determine the paw-withdrawal threshold. On day 15 post EAE induction, after reduction in the paw-withdrawal threshold (establishment of mechanical allodynia pain), subcutaneous injection of 15 mg/kg XT-203 or saline was administered three times/day for 15 days. Behavioral data were analyzed with two-way ANOVA. For all tests, statistical significance was set to p<0.05 (*).

[3] = biological target: hERG (Homo sapiens, UniProt Q12809); assay: hERG inhibition
[4] = in vitro; details: mouse, hepatocytes
[5] = test system: Human hepatocytes; assay: Hepatocyte elimination of parent compound; details: hepatocytes
[6] = in vitro; details: human, cultured hepatocytes
[7] = in vitro; details: rat, cultured hepatocytes
[8] = biological target: T1, Adrenergic α2A (Homo sapiens, UniProt P08913); assay: Off-target screening; assay type: binding
T1 sequence (P08913 1-465): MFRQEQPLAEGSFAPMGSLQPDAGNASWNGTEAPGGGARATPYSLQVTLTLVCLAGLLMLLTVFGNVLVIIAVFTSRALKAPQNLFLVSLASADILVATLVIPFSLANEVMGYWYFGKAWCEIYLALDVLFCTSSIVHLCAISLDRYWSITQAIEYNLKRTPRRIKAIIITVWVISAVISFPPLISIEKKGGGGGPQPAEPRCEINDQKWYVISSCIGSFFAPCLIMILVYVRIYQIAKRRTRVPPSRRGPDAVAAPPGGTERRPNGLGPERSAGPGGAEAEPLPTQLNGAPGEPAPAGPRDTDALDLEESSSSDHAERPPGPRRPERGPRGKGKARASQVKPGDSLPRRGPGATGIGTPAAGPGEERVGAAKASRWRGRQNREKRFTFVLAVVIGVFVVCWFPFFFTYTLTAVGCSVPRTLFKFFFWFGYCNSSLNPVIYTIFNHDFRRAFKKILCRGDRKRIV
Excerpt: (§1) In addition to the animal studies presented above in Examples 1-9, the results of in vitro testing of several of the compounds (i.e., XT-203, XT-204, and XT-206 through XT-217) are shown in Table 5 and Table 6. […]. Nine additional compounds had two or fewer off-target hits in the screening. […] These compounds spanned all of the tested N-modification classes. […]. Thus, the medicinal chemistry approach taken in this series of fluorinated compounds can yield low off-target activity and longer metabolic lifetime while preserving TLR4 antagonism. It is appreciated that further development of compounds in this class, using techniques known to those skilled in the art, may yield additional compounds with desirable pharmacologic and toxicologic characteristics.

[9] = test system: Sodium channel site 2; assay: Off-target screening; assay type: binding
Excerpt: as §1

Sequence of hERG (Q12809 whole entry): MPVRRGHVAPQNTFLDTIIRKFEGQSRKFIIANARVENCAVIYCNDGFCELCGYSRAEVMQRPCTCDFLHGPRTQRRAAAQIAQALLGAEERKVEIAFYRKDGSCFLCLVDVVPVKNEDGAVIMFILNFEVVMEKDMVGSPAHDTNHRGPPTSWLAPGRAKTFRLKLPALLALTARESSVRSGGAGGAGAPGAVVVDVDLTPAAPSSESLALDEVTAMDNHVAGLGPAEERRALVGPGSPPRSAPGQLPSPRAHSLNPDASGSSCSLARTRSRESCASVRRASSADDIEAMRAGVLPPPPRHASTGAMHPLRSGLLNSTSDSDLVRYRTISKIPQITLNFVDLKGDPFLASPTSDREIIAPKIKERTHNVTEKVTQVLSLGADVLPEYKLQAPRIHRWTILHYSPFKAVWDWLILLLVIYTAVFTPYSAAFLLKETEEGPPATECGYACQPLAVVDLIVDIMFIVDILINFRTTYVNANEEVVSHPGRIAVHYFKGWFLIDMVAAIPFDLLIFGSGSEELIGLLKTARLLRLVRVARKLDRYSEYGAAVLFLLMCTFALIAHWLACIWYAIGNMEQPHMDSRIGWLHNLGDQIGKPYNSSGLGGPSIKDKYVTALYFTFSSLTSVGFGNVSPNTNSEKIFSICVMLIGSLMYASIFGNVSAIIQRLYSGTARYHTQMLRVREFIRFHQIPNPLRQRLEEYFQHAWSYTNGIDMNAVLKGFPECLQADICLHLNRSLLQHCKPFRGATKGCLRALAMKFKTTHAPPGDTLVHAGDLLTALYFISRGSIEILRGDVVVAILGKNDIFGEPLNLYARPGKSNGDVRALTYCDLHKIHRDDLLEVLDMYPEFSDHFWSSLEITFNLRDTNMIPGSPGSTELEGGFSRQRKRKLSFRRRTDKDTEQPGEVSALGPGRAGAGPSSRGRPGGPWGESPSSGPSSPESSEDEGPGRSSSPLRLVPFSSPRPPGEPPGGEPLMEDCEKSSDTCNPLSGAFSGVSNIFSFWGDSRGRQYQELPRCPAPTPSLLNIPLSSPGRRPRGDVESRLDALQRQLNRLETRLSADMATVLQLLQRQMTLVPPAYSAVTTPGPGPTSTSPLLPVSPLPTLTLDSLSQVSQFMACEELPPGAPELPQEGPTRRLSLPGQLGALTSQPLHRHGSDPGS

COc1ccc2c3c1O[C@@H]1C(F)CCC4[C@H](C2)N(CC2CC2)CC[C@]341 (stereo partly shown) [XT-203]
cell viability [1]: good viability
pain responses in MOG-treated rats ([2]; 15 mg/kg SC three times/day for 15 days from day 15 post EAE induction): did reverse pain responses
pain response in sham non-MOG rats ([2]; 15 mg/kg SC three times/day for 15 days): no effect
IC50 [3]: > 100 µM
half-life [4]: ~27 min
half-life in human hepatocytes compared to (+)-NTX and AK-17 [5]: enhanced half-life
half-life [6]: 54.3 min
half-life [7]: 13.2 min
% Inhibition at 10 μM, Adrenergic α2A [8]: 99%
% Inhibition at 10 μM, Adrenergic α2A ([8]; listed as XT 203, 10 µM): 64%
inhibition at 1 µM ([8]; read-out: % inhibition at 1 μM (retest), Adrenergic α2A, 1 μM): < 50%
% Inhibition at 10 μM, Sodium channel site 2 ([9]; 10 µM): 64%
% Inhibition at 10 μM, Sodium channel site 2 ([9]; listed as XT 203, 10 µM): 54%
